Here are results for 69 compounds from PMC6792352, “Limited Chemical Structural Diversity Found to Modulate Thyroid Hormone Receptor in the Tox21 Chemical Library” (Environmental Health Perspectives, 2019).

Counter-ions that a name gives are not always drawn.

The first data set is described as follows: in vitro. To be noted: rat, gh3-tre-luc cells, AC50 (uM) modified / 1000.
The term CC50 denotes the concentration at which the toxic effect on the cells reaches its halfway point. High values mean better tolerance by the cells, low ones harm at low concentration. `CN(C)C(=O)Nc1ccccc1` [Fenuron] returned a half-maximal cytotoxic concentration (CC50) at 24 h greater than 90 µM.
On the same count and under the same terms, the value for `CC(C)C(C(=O)OC(C#N)c1cccc(Oc2ccccc2)c1)c1ccc(Cl)cc1` (stereo not shown) [Fenvalerate] was greater than 90 µM.
On the same count and under the same terms, the value for `CC(C)=CCC1C(=O)N(c2ccccc2)N(c2ccccc2)C1=O` [Feprazone] was 48.7 µM; that for `Cc1ccc(/C=N/n2c(-c3ccccc3)csc2=S)cc1` [Fezatione] was greater than 50 µM; that for `NC(=O)[C@@H]1C[C@]2(NC(=O)NC2=O)c2cc(F)ccc2O1` [Fidarestat] was greater than 50 µM.
Same read-out and setting: as for `COc1cccc2c1[C@@H]1CN(CCCCn3c(=O)[nH]c4c(sc5ncc(-c6ccccc6)nc54)c3=O)C[C@@H]1CO2` [Fiduxosin hydrochloride], the figure is 13.1 µM; as for `O=C(COc1ccc(Cl)cc1)N1CCN(Cc2ccc3c(c2)OCO3)CC1` [Fipexide hydrochloride], 66.7 µM.
For the compound `COc1cc(O)cc(O)c1` [Flamenol], the half-maximal cytotoxic concentration (CC50) at 24 h was greater than 50 µM.
Same read-out and setting: the value for `CC(C)OC(=O)C(C)N(C(=O)c1ccccc1)c1ccc(F)c(Cl)c1` (stereo not shown) [Flamprop-isopropyl] was 50 µM.
Still for that read-out and setting: the value for `Cc1cc2nc3c(=O)[nH]c(=O)nc-3n(C[C@H](O)[C@H](O)[C@H](O)COP(=O)(O)OP(=O)(O)OC[C@H]3O[C@@H](n4cnc5c(N)ncnc54)[C@H](O)[C@@H]3O)c2cc1C` [Flavin adenine dinucleotide disodium] was greater than 50 µM; that for `O=c1cc(-c2ccccc2)oc2ccccc12` [Flavone] was greater than 90 µM.
In turn, `CN1CC[C@H](c2c(O)cc(O)c3c(=O)cc(-c4ccccc4Cl)oc23)[C@H](O)C1` [Flavopiridol hydrochloride] came in with a CC50 at 24 h of 0.302 µM.
On the same count and under the same terms, the value for `Cc1c(-c2ccccc2)oc2c(C(=O)OCCN3CCCCC3)cccc2c1=O` [Flavoxate hydrochloride] was greater than 20 µM.
Still for that read-out and setting: the value for `CN1CCC(O)(c2ccc(F)cc2)C(C(=O)c2ccc(F)cc2)C1` (stereo not shown) [Flazalone] was 19.6 µM; that for `O=C(NCC1CCCCN1)c1cc(OCC(F)(F)F)ccc1OCC(F)(F)F` (stereo not shown) [Flecainide acetate] was 42.2 µM.
On the same count and under the same terms, the value for `CN1CCN(c2c(F)cc3c(=O)c(C(=O)O)cn(CCF)c3c2F)CC1` [Fleroxacin] was greater than 50 µM.
The compound `CO[C@@]1(NC(=O)CSC(F)F)C(=O)N2C(C(=O)O)=C(CSc3nnnn3CCO)CO[C@@H]21` [Flomoxef] showed a CC50 at 24 h greater than 50 µM.
The compound `CCC(=O)c1c(O)cc(O)cc1O` [Flopropione] came in with a CC50 at 24 h greater than 50 µM.
The compound `CS(=O)(=O)c1ccc([C@@H](O)[C@@H](CF)NC(=O)C(Cl)Cl)cc1` [Florfenicol] came in with a CC50 at 24 h greater than 20 µM.
On the same count and under the same terms, as for `Cn1cc([S+](C)[O-])c(=O)c2ccc(F)cc21` (stereo not shown) [Flosequinan], the figure is greater than 50 µM.
Same read-out and setting: as for `Cc1onc(-c2c(F)cccc2Cl)c1C(=O)N[C@@H]1C(=O)N2[C@@H]1SC(C)(C)[C@@H]2C(=O)O` [Floxacillin sodium salt], the figure is greater than 50 µM; as for `O=c1[nH]c(=O)n([C@H]2C[C@H](O)[C@@H](CO)O2)cc1F` [Floxuridine], greater than 50 µM; as for `CCN(CC)CCC(=O)N1c2ccccc2Sc2ccc(C(F)(F)F)cc21` [Fluacizine], 20.5 µM.
Take `COc1ccccc1N1CCN(CCCC(=O)c2ccc(F)cc2)CC1` [Fluanisone]: the CC50 at 24 h is greater than 50 µM.
On the same count and under the same terms, the value for `CCCCOC(=O)[C@@H](C)Oc1ccc(Oc2ccc(C(F)(F)F)cn2)cc1` [Fluazifop-P-butyl] was greater than 90 µM; that for `CCCCOC(=O)C(C)Oc1ccc(Oc2ccc(C(F)(F)F)cn2)cc1` (stereo not shown) [Fluazifop-butyl] was greater than 90 µM; that for `O=[N+]([O-])c1cc(C(F)(F)F)c(Cl)c([N+](=O)[O-])c1Nc1ncc(C(F)(F)F)cc1Cl` [Fluazinam] was 4.25 µM.
Still for that read-out and setting: the value for `O=C(NC(=O)c1c(F)cccc1F)Nc1ccc(Cl)c(Oc2ncc(C(F)(F)F)cc2Cl)c1` [Fluazuron] was greater than 50 µM.
`Cc1cc(C(F)(C(F)(F)F)C(F)(F)F)ccc1NC(=O)c1cccc(I)c1C(=O)NC(C)(C)CS(C)(=O)=O` [Flubendiamide] yielded a CC50 at 24 h greater than 70 µM.
In the case of `COc1nn(C(=O)NS(=O)(=O)c2ccccc2OC(F)(F)F)c(=O)n1C` [Flucarbazone-sodium], the CC50 at 24 h is greater than 90 µM.
Take `OC(Cn1cncn1)(Cn1cncn1)c1ccc(F)cc1F` [Fluconazole]: the CC50 at 24 h is greater than 90 µM.
`CC(C)C(C(=O)OC(C#N)c1cccc(Oc2ccccc2)c1)c1ccc(OC(F)F)cc1` (stereo not shown) [Flucythrinate] showed a CC50 at 24 h greater than 90 µM.
Compound `Nc1nc(=O)[nH]cc1F` [Flucytosine] registered a CC50 at 24 h greater than 20 µM.
For `Nc1nc(F)nc2c1ncn2[C@@H]1O[C@H](CO)[C@@H](O)[C@@H]1O` [Fludarabine], the CC50 at 24 h was 52 µM.
Same read-out and setting: as for `N#Cc1c[nH]cc1-c1cccc2c1OC(F)(F)O2` [Fludioxonil], the figure is 35.9 µM.
`C[C@]12CCC(=O)C=C1CC[C@H]1[C@@H]3CC[C@](O)(C(=O)CO)[C@@]3(C)C[C@H](O)[C@@]12F` [Fludrocortisone] had a cytotoxic concentration (CC50) at 24 h greater than 50 µM.
On the same count and under the same terms, the value for `CC(C)N(C(=O)COc1nnc(C(F)(F)F)s1)c1ccc(F)cc1` [Flufenacet] was greater than 90 µM; that for `O=C(O)c1ccccc1Nc1cccc(C(F)(F)F)c1` [Flufenamic acid] was greater than 50 µM; that for `O=C(NC(=O)c1c(F)cccc1F)Nc1ccc(Oc2ccc(C(F)(F)F)cc2Cl)cc1F` [Flufenoxuron] was 34.6 µM.
For `CCOC(=O)COc1cc(-n2ncc(C(F)(F)F)c(C)c2=O)c(F)cc1Cl` [Flufenpyr-ethyl], the 50% cytotoxic concentration (CC50) at 24 h was greater than 90 µM.
`O=C1c2ccccc2C(=O)C1c1ccc(F)cc1` [Fluindione] came in with a CC50 at 24 h greater than 50 µM.
Same read-out and setting: the value for `CCOC(=O)c1ncn2c1CN(C)C(=O)c1cc(F)ccc1-2` [Flumazenil] was greater than 50 µM; that for `CC1CCc2cc(F)cc3c(=O)c(C(=O)O)cn1c23` (stereo not shown) [Flumequine] was greater than 50 µM.
For `C[C@@H]1C[C@H]2[C@@H]3C[C@H](F)C4=CC(=O)C=C[C@]4(C)[C@@]3(F)[C@@H](O)C[C@]2(C)[C@@]1(O)C(=O)COC(=O)C(C)(C)C` [Flumethasone pivalate], the CC50 at 24 h is greater than 50 µM.
On the same count and under the same terms, as for `CCN(Cc1c(F)cccc1Cl)c1c([N+](=O)[O-])cc(C(F)(F)F)cc1[N+](=O)[O-]` [Flumetralin], the figure is greater than 90 µM.
Same read-out and setting: as for `Cc1ccn2nc(S(=O)(=O)Nc3c(F)cccc3F)nc2n1` [Flumetsulam], the figure is greater than 90 µM; as for `CCCCCOC(=O)COc1cc(N2C(=O)C3=C(CCCC3)C2=O)c(F)cc1Cl` [Flumiclorac-pentyl], greater than 90 µM.
Still for that read-out and setting: the value for `C#CCN1C(=O)COc2cc(F)c(N3C(=O)C4=C(CCCC4)C3=O)cc21` [Flumioxazin] was greater than 90 µM; that for `Fc1ccc(C(c2ccc(F)cc2)N2CCN(C/C=C/c3ccccc3)CC2)cc1` [Flunarizine] was 12.3 µM.
In turn, `CC1(C)O[C@@H]2C[C@H]3[C@@H]4C[C@H](F)C5=CC(=O)C=C[C@]5(C)[C@H]4[C@@H](O)C[C@]3(C)[C@]2(C(=O)CO)O1` [Flunisolide] returned a 50% cytotoxic concentration (CC50) at 24 h greater than 20 µM.
`Cc1c(Nc2ncccc2C(=O)O)cccc1C(F)(F)F` [Flunixin meglumine] showed a CC50 at 24 h of 3.99 µM.
Same read-out and setting: as for `CC1(C)O[C@@H]2C[C@H]3[C@@H]4C[C@H](F)C5=CC(=O)C=C[C@]5(C)[C@@]4(F)[C@@H](O)C[C@]3(C)[C@]2(C(=O)CO)O1` [Fluocinolone acetonide], the figure is greater than 50 µM; as for `CC(=O)OCC(=O)[C@@]12OC(C)(C)O[C@@H]1C[C@H]1[C@@H]3C[C@H](F)C4=CC(=O)C=C[C@]4(C)[C@@]3(F)[C@@H](O)C[C@@]12C` [Fluocinonide], greater than 20 µM; as for `CN(C)C(=O)Nc1cccc(C(F)(F)F)c1` [Fluometuron], greater than 90 µM.
The compound `CN1CCN(CCCN2c3ccccc3Sc3ccc(C(F)(F)F)cc32)CC1` [Fluoperazine dihydrochloride] had a CC50 at 24 h of 7.86 µM.
On the same count and under the same terms, as for `c1ccc2c(c1)-c1cccc3cccc-2c13` [Fluoranthene], the figure is greater than 90 µM; as for `c1ccc2c(c1)Cc1ccccc1-2` [Fluorene], greater than 90 µM.
As to `O=C(O)c1ccccc1-c1c2ccc(=O)cc-2oc2cc(O)ccc12` [Fluorescein sodium], the 50% cytotoxic concentration (CC50) at 24 h is greater than 50 µM.
On the same count and under the same terms, the value for `O=C1OC2(c3ccc(O)cc3Oc3cc(O)ccc32)c2ccccc21` [Fluorescein] was greater than 50 µM.
For the compound `Fc1ccccc1` [Fluorobenzene], the 50% cytotoxic concentration (CC50) at 24 h was greater than 90 µM.
Same read-out and setting: the value for `CCOC(=O)COC(=O)c1cc(Oc2ccc(C(F)(F)F)cc2Cl)ccc1[N+](=O)[O-]` [Fluoroglycofen-ethyl] was greater than 90 µM; that for `CO/N=C(/C1=NOCCO1)c1ccccc1Oc1ncnc(Oc2ccccc2Cl)c1F` [Fluoxastrobin] was 32.7 µM; that for `CNCCC(Oc1ccc(C(F)(F)F)cc1)c1ccccc1` (stereo not shown) [Fluoxetine hydrochloride] was 10.3 µM.
Same read-out and setting: as for `CN1CCN(C2=Nc3cc(F)ccc3Cc3ccccc32)CC1` [Fluperlapine], the figure is 11.9 µM; as for `OCCN1CCN(CCCN2c3ccccc3Sc3ccc(C(F)(F)F)cc32)CC1` [Fluphenazine], 5.76 µM.
Still for that read-out and setting: the value for `CCOC(=O)Nc1ccc(NCc2ccc(F)cc2)nc1N` [Flupirtine maleate] was greater than 50 µM.

The data set is the same for the next values; noted with them: rat, gh3-tre-luc cells, AC50 (uM) modified / 1000, Tox21_110001=Tox21_113158; viability, 1 nM T3 present, 24 h.
As for `C[C@]1(O)CC[C@H]2[C@@H]3CCC4=CC(=O)CC[C@]4(C)[C@@]3(F)[C@@H](O)C[C@@]21C` [Fluoxymestrone], the cytotoxic concentration (CC50) at 24 h was greater than 50 µM.

The data set is the same for the next values; noted with them: rat, gh3-tre-luc cells, AC50 (uM) modified / 1000, Tox21_110001=Tox21_200854; viability, 1 nM T3 present, 24 h.
Compound `C[C@]1(O)CC[C@H]2[C@@H]3CCC4=CC(=O)CC[C@]4(C)[C@@]3(F)[C@@H](O)C[C@@]21C` [Fluoxymestrone] gave a half-maximal cytotoxic concentration (CC50) at 24 h greater than 90 µM.

The data set is the same for the next values; noted with them: rat, gh3-tre-luc cells, AC50 (uM) modified / 1000, Tox21_110001=Tox21_301333; viability, 1 nM T3 present, 24 h.
`CCCN(CCCl)c1c([N+](=O)[O-])cc(C(F)(F)F)cc1[N+](=O)[O-]` [Fluchloralin] returned a cytotoxic concentration (CC50) at 24 h greater than 90 µM.

Still in this data set, the particulars now being: rat, gh3-tre-luc cells, AC50 (uM) modified / 1000, Tox21_110001=Tox21_301354; viability, 1 nM T3 present, 24 h.
Turning to `O=[N+]([O-])c1ccc(Oc2ccc(C(F)(F)F)cc2[N+](=O)[O-])cc1` [Fluorodifen], the cytotoxic concentration (CC50) at 24 h was greater than 90 µM.
